In patent US9132138B2, “Method for the treatment of multiple sclerosis” (CASI Pharmaceuticals, Inc., priority 2012, dated 2015):

Biological target: T1, GPER1 (Mus musculus, UniProt Q8BMP4)
T1 construct: Purified C57/BL6 CD4^+ T cells were preincubated with the GPER1 antagonist G15; endogenous in cells; host or cells: purified primary CD4+ T cells from C57/BL6 mice
T1 sequence (Q8BMP4 1-375): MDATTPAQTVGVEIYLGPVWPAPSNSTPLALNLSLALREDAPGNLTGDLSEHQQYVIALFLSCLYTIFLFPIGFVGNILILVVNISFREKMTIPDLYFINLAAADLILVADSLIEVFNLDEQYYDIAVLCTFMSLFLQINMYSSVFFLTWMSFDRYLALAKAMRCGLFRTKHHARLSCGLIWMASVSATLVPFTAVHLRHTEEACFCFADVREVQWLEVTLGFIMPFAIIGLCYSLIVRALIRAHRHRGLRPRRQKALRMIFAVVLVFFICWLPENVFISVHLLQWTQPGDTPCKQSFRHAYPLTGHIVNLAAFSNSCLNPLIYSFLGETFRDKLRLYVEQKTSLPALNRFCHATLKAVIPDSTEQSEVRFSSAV
Experiment: GPER1 dependence: CD25/CD69 on CD4+ T cells with G15 or G1
Assay type: cell-based, C57/BL6 mice
Details: for cell viability: at 6 hours
Method: FIGS. 6A and 6B show purified CD4^+ T cells that were pretreated with 2-50 μM 2ME2 and/or the GPER1 antagonist G15, and subsequently stimulated with anti-CD3/28 for 6 hours. Activation of CD4^+ T cells was assessed by CD25 and CD69 upregulation, measured by flow cytometry. US, unstimulated. Data is shown as mean±SD for triplicate determinations, and is representative of two separate experiments.
Purified C57/BL6 CD4^+ T cells were preincubated with the GPER1 antagonist G15 (100 nM, Tocris) and 2ME2 (0-50 μM), or the GPER1 agonist G1 (1-100 nM, Tocris) for 30 minutes, and activated with plate bound anti-CD3 plus soluble anti-CD28. 6 hours later, cells were harvested, stained with anti-CD4 and anti-CD25. CD25 expression was monitored on a HTS FACSCanto II (BD) and analyzed with FloJo (Treestar Inc).

[1] = G15 100 nM with 2ME2, anti-CD3/28, 6 hours

Row | SMILES | reversal of the inhibitory effect of 2ME2 on CD25 expression [1] | reversal of the inhibitory effect of 2ME2 on CD69 expression [1] | cell viability | CD25 expression on activated T cells (G1 1-100 nM, 6 hours) | CD69 expression on activated T cells (G1 1-100 nM, 6 hours)
1 | Brc1cc2c(cc1[C@@H]1Nc3ccccc3[C@@H]3C=CC[C@@H]31)OCO2 [G15] | failed to reverse | failed to reverse | Neither 2ME2, G1 nor G15 affected cell viability |  | 
2 | CC(=O)c1ccc2c(c1)C1C=CCC1C(c1cc3c(cc1Br)OCO3)N2 (stereo not drawn) [G1] |  |  | Neither 2ME2, G1 nor G15 affected cell viability | no effect | no effect
